Columns and labels:
erbB2 tyrosine kinase = target: T1, erbB2 tyrosine kinase (Homo sapiens, UniProt P04626); assay: Protein tyrosine kinase phosphorylation assay, Test (a), erbB2; format: biochemical; conditions: recombinant intracellular fragment, ATP at Km; read-out: IC50 Test (a): Inhibition of erbB2 tyrosine kinase protein phosphorylation
T1 construct: Recombinant intracellular fragments of EGFR, erbB2 and erbB4; made in house; host or cells: baculovirus/Sf21 insect cells (cleared lysate used)
Protocol: (§1) This test measures the ability of a test compound to inhibit the phosphorylation of a tyrosine containing polypeptide substrate by EGFR, erbB2 and erbB4 tyrosine kinase enzyme.
(§2) Recombinant intracellular fragments of EGFR, erbB2 and erbB4 (accession numbers X00588, X03363 and L07868 respectively) were cloned and expressed in the baculovirus/Sf21 system. […]
(§3) Constitutive kinase activity of these recombinant proteins was determined by their ability to phosphorylate a synthetic peptide (made up of a random co-polymer of Glutamic Acid, Alanine and Tyrosine in the ratio of 6:3:1). […]
(§4) The immobilised phospho-peptide product of the reaction was detected by immunological methods. […] After further washing, HRP activity in each well of the plate was measured colorimetrically using 22′-Azino-di-[3-ethylbenzthiazoline sulfonate (6)]diammonium salt crystals (ABTS™ from Roche) as a substrate.
(§5) Quantification of colour development and thus enzyme activity was achieved by the measurement of absorbance at 405 nm on a Molecular Devices ThermoMax microplate reader. Kinase inhibition for a given compound was expressed as an IC50 value. […] The range of phosphorylation was calculated from the positive (vehicle plus ATP) and negative (vehicle minus ATP) control values.

erbB2 = target: T2, erbB2 (Homo sapiens, UniProt P04626); assay: Clone 24 phospho-erbB2 cell assay, Test (c); format: cell-based; conditions: MCF7 derived cell line (Clone 24) overexpressing erbB2, 4 hours; read-out: IC50 Test (c): Inhibition of erbB2 tyrosine kinase protein phosphorylation
T2 construct: a cell line that overexpresses full length wild type erbB2 protein; expressed in transfected cells; host or cells: MCF7 (breast carcinoma) derived 'Clone 24' cells
Protocol: This immunofluorescence end point assay measures the ability of a test compound to inhibit the phosphorylation of erbB2 in a MCF7 (breast carcinoma) derived cell line which was generated by transfecting MCF7 cells with the full length erbB2 gene using standard methods to give a cell line that overexpresses full length wild type erbB2 protein (hereinafter ‘Clone 24’ cells).
Clone 24 cells were cultured in Growth Medium (phenol red free Dulbecco's modified Eagle's medium (DMEM) containing 10% foetal bovine serum, 2 mM glutamine and 1.2 mg/ml G418) in a 7.5% CO2 air incubator at 37° C. […] Cell density was measured using a haemocytometer and viability was calculated using Trypan Blue solution before being further diluted in Growth Medium and seeded at a density of 1×10^4 cells per well (in 100 μl) into clear bottomed 96 well plates (Packard, No. 6005182). […]
Immunostaining was performed at room temperature. […] Plates were analysed within six hours of completing the immunostaining.
The Fluorescence signal is each well was measured using an Acumen Explorer Instrument (Acumen Bioscience Ltd.), a plate reader that can be used to rapidly quantitate features of images generated by laser-scanning. […]

EGFR tyrosine kinase = target: T3, EGFR tyrosine kinase (Homo sapiens, UniProt P00533); assay: Protein tyrosine kinase phosphorylation assay, Test (a), EGFR; format: biochemical; conditions: recombinant intracellular fragment, ATP at Km; read-out: IC50 Test (a): Inhibition of EGFR tyrosine kinase protein phosphorylation
T3 construct: Recombinant intracellular fragments of EGFR, erbB2 and erbB4; made in house; host or cells: baculovirus/Sf21 insect cells (cleared lysate used)
Protocol: as §1, §2, §3, §4, §5

T1 sequence (P04626 676-1255 limits assumed): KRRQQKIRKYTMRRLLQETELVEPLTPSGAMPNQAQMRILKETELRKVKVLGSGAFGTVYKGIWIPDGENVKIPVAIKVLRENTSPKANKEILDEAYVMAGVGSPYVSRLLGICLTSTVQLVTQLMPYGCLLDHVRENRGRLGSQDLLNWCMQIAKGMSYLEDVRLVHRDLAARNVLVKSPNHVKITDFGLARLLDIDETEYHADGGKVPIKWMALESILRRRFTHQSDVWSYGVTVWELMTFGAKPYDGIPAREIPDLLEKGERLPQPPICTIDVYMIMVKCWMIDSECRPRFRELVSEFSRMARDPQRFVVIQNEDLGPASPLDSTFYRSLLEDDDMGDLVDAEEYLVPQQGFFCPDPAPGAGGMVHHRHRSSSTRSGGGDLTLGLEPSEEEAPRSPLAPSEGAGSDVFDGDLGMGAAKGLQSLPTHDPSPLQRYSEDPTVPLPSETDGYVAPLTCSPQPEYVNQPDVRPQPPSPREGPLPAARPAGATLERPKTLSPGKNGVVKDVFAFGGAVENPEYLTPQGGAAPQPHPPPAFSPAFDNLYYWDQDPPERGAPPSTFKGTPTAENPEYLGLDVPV
T2 sequence (P04626 23-1255): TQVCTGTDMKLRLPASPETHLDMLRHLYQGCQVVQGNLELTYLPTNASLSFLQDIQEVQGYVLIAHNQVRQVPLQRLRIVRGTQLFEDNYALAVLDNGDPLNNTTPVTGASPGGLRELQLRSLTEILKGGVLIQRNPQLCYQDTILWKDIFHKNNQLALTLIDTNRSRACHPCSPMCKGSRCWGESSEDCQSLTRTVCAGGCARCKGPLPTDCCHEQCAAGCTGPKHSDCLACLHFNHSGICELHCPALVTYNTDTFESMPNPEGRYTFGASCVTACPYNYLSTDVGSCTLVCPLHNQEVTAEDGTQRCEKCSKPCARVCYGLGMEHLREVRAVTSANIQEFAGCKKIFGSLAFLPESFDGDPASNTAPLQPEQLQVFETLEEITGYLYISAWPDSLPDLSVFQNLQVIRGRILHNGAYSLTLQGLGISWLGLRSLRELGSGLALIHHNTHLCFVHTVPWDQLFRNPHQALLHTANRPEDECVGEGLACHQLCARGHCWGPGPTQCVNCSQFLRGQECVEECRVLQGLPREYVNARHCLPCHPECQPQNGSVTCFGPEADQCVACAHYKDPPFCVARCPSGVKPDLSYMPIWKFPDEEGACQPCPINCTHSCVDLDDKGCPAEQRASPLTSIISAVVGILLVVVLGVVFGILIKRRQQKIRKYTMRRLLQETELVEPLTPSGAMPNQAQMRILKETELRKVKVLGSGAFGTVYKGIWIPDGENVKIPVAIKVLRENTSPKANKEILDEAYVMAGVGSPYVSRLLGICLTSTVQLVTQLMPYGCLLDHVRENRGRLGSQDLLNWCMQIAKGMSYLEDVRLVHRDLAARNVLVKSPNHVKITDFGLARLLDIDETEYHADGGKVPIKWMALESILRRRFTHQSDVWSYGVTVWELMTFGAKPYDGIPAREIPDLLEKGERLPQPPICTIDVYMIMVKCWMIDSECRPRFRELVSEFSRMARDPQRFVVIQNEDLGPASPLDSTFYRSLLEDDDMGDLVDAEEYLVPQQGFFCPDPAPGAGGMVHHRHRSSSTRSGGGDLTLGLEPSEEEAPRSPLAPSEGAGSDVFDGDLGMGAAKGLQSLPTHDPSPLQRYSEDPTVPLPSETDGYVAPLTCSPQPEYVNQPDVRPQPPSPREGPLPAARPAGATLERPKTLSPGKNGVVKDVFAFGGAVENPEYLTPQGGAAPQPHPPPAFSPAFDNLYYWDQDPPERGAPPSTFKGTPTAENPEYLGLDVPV
T3 sequence (P00533 669-1210 limits assumed): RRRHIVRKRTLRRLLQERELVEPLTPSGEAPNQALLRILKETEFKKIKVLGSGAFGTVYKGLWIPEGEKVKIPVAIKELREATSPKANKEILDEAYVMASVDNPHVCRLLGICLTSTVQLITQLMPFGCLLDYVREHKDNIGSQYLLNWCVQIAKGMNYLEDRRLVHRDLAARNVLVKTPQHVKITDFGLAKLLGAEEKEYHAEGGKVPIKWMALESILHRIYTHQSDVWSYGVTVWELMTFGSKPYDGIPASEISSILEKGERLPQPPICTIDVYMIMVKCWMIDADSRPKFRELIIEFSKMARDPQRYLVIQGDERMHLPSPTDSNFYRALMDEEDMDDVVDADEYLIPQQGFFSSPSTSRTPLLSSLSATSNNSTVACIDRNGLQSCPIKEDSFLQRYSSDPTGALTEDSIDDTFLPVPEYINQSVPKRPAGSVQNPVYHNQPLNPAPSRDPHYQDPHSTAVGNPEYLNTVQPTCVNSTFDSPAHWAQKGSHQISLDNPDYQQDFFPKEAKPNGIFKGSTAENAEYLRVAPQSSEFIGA

IC50 (erbB2 tyrosine kinase) [nM]	IC50 (erbB2) [nM]	IC50 (EGFR tyrosine kinase) [nM]	SMILES
6	380	310	O=C(CO)N1CCC[C@@H]1COc1cccc2ncnc(Nc3ccc4c(cnn4Cc4ccccn4)c3)c12 [Example 1, 2-Oxo-2-((2R)-2-{[(4-{[1-(pyridin-2-ylmethyl)-1H-indazol-5-yl]amino}quinazolin-5-yl)oxy]methyl}pyrrolidin-1-yl)ethanol]
5	44	61	O=C(CO)N1CCCC[C@@H]1COc1cccc2ncnc(Nc3ccc4c(cnn4Cc4ccccn4)c3)c12 [Example 4, 2-Oxo-2-((2R)-2-{[(4-{[1-(pyridin-2-ylmethyl)-1H-indazol-5-yl]amino}quinazolin-5-yl)oxy]methyl}piperidin-1-yl)ethanol]

Reference: patent US20090137615A1, “INDAZOLYLAMINO QUINAZOLINE DERIVATIVES AS ANTITUMOUR AGENTS” (priority 2005, published 2009)
